One series deals with acid output. In words: Gastric antisecretory activity in the Heidenhain Pouch Dog. Particulars: for Potency Ratio (cimetidine = 1.0): oral. In kind it is in vivo, dogs. The protocol:
Prior to surgery, hematology and blood chemistry profiles are obtained and an assessment made as to the general health of selected female dogs. Dogs are vaccinated with Tissue Vax 5 (DHLP - Pitman-Moore) and housed in general animal quarters for four weeks' observation so incipient diseases may become apparent. Dogs are fasted with water ad libitum 24 hours prior to surgery.
Anesthesia is induced with Sodium Pentothal (Abbott) 25-30 mg/kg iv. Subsequent anesthesia is maintained with methoxy- flurane (Pitman-Moore). A mid-line linea alba incision from xiphoid to umbilicus provides good exposure and ease of closure. The stomach is pulled up into the operative field, the greater curvature stretched out at multiple points and clamps placed along the selected line of incision. The pouch is made from the corpus of the stomach so that true parietal cell juice is obtained. About 30% of the corpus volume is resected. The cannula is made of light-weight, biologically-inert material such as nylon or Delrin with dimensions and attachments after DeVito and Harkins [J. Appl. Physiol., 14, 138 (1959)]. Post operatively, dogs are medicated with antibiotics and an analgesic. They are allowed 2-3 months for recovery. Experiments are carried out in the following way: Dogs are fasted overnight (~18 hours) with water ad libitum prior to each experiment. The dogs are placed in a sling and a saphenous vein cannulated for drug administration. Histamine as the base (100 ug/kg/hr) and chlorpheniramine maleate (0.25 mg/kg/hr) are infused continuously (in a volume of 6 mL/hr) with a Harvard infusion pump.
Ninety minutes' infusion are allowed for the dogs to reach a steady state of acid output. At this time the drug or normal saline (control) is administered concomitantly with the secretagogue in a volume of 0.5 mL/kg over a 30 second period. When oral studies are to be carried out, the drug is administered via gastric gavage in a volume of 5 mL/kg. Infusion of the secretagogue is continued and 15 minute samples of.the gastric juice are taken for 4.5 hours. Each sample is measured to the nearest 0.5 mL and titratable acidity is determined by titrating a 1 mL sample to pH 7.0 with 0.2N NaOH, using an Autoburet and an electrometric pH meter (Radiometer). Titratable acid output is calculated in microequivalents by multiplying the volume in milliliters by the acid concentration in milliequivalents per liter.
Results are expressed as percent inhibition relative to control readings. Dose response curves are constructed and ED50 values are calculated by regression analyses. From 3 to 5 dogs are used at each dose level and a minimum of three dosage levels are utilized for determination of a dose response curve.

A further series relates to Gastric Acid Output. In words: Gastric antisecretory activity in the Gastric Fistula Rat (Table 2 title: Two-Hour Pylorus Ligated Rat). In kind it is in vivo, Long Evans rats. Particulars: Rattus norvegicus, sc; Route of Administration s.c.; numbers in parentheses are the 95% confidence limits; read-out: ED50. The essentials:
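Fasted, conscious male Long Evans rats with chronic gastric fistulas. A 2 h control secretion is collected, then compound is given orally (collection from 45 min post-dose) or ip/sc, and a second 2 h sample is collected. Acid output titrated to pH 7.0; ED values from percent inhibition dose-response regression, ≥3 rats/dose.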

A further series has as its system gastric erosions. Put plainly: HCl-induced gastric erosions in rats, pretreatment with compound alone or with pepstatin. It is filed as in vivo, Long Evans rats. Conditions: probit analysis.
Series [1] relates to gastric secretion. In words: Inhibition of gastric secretion by the oral route, dog. It is filed as in vivo.
The test system of series [2] is gastric secretion. In words: Inhibition of gastric secretion by the oral route, rat. It is filed as in vivo.
The next series deals with ulcer formation. Conditions: two or more days of pretreatment, single agent; cited from earlier work.
The next series concerns gastric acid secretion. Conditions: normal volunteers and patients with duodenal ulcer; cited from earlier work.
Series [3] has as its system pepsin. Conditions: cited from earlier work.
The conditions of series [4]: all animal species studied; cited from earlier work.
Series [5] has as its system pepsin. Conditions: patients with ulcer dyspepsia; cited from earlier work.
In series [6] the test system is pepsin. Conditions: cited from earlier work. This is another data set of the same source.
In another series the test system is stomach ulcers. Conditions: rat, in vivo; cited from earlier work.
Another series concerns gastric ulcer. Conditions: 100 mg doses seven times a day, versus placebo; cited from earlier work.
For series [7] the following is noted: daily oral doses of 700 mg for up to three months; cited from earlier work.
Series [8] deals with pepsin. Put plainly: 18 hour pylorus ligated rat. It is filed as in vivo. Particulars: 20 mg/kg po.
A further series relates to duodenal ulcer. Conditions: 100 mg doses seven times a day, cited from earlier work.
For series [9] the following is noted: cited from earlier work.
The test system of series [10] is pepsin. Conditions: in the feed at >50 ppm; cited from earlier work.

Where two headings read alike, the source gives them in different places. Where a SMILES comes first, the peptide text is derived from it. [ ]: non-standard residue; d: D form. The star is where a group is joined. Sta = CC(C)C[C@H](N)[C@@H](O)CC(=O)O; Isovaleryl = CC(C)CC(=O)*

Method for gastric erosions: Adult male, Long Evans rats weighing 280-300 g (Blue Spruce Farms, Alton, New York) were used. The animals were individually caged and food and water were removed 24 and 18 hours, respectively, prior to testing. On the following day, the test compound was administered orally to the animals 30 minutes before 1.0 mL of 0.75N HC1 was instilled into the stomach by gavage. Animals treated with the combination of the test compound and pepstatin received the test compound 30 minutes before, and a fixed amount of pepstatin (20 mg/kg po) 10 minutes before, the hydrochloric acid was administered. […] One hour after receiving the HC1 solution, the animals were sacrificed with an intraperitoneal injection of 0.2 mL of T-6r-, a euthanasia solution (National Laboratories Corp.).
The stomachs were photographed with a Polaroid" Close Up camera (Polaroid Corporation) and scoring was determined from the photographs. For scoring purposes, only those erosions with a minimum length of 1 mm were considered. The severity of gastric ulceration was defined for each animal as the sum of the maximum continuous lengths (in mm) of the erosions satisfying the above criteria. […]
Data were analyzed using the t-test for unpaired data and ED50 values were calculated from the dose response data using probit analysis [Finney, Probit Analysis, 3rd ed., University Press, Cambridge, England (1971)]. […]

On to `CN(C)Cc1cccc(OCCCNc2n[s+]([O-])nc2N)c1` (stereo not drawn) [Example 118, 3-Amino-4-[3-(3-dimethylaminomethylphenoxy)propylamino]-1,2,5-thiadiazole 1-oxide], for which the “Potency Ratio (cimetidine = 1.0)” value with acid output is 10. In addition, in the series with Gastric Acid Output, the ED50 was found to be 0.066 µmol/kg.

On to `[O-][s+]1nc(NCCCOc2cccc(CN3CCCCC3)c2)c(NCc2cccnc2)n1` (stereo not drawn) [Example 149, 3-[(3-Pyridyl)methylamino]-4-[3-(3-piperidinomethylphenoxy)-proavlamino]-1,2,5-thiadiazole1-oxide], for which, in the series with acid output, the “Potency Ratio (cimetidine = 1.0)” value was found to be 10. In addition, in the series with Gastric Acid Output, the ED50 was ~0.08 µmol/kg.

Turning to `CNC(=C[N+](=O)[O-])NCCSCc1ccc(CN(C)C)o1` [Ranitidine, ranitidine], in the series on gastric erosions (Rattus norvegicus, po, compound alone, orally 30 minutes before 1.0 mL of 0.75N HCl, read-out: ED50 (mg/kg) for Inhibition of Ulcer Formation Alone), the ED50 stood at 123 mg/kg. For the same molecule, in the series on gastric erosions (compound orally 30 minutes before and pepstatin 20 mg/kg po 10 minutes before HCl), the “ED50 (mg/kg) for Inhibition of Ulcer Formation with Pepstatin” value is 104 mg/kg. The “times as potent as cimetidine as an inhibitor of gastric secretion” value in the series on gastric secretion [1] is listed as ~6 times; in the series on gastric secretion [2] it was “about 4 times”.

Take `CC1(C)[C@@H](OC(=O)CCC(=O)O)CC[C@]2(C)[C@H]3C(=O)C=C4[C@@H]5C[C@@](C)(C(=O)O)CC[C@]5(C)CC[C@@]4(C)[C@]3(C)CC[C@@H]12` [carbenoxolone]: the ulcer formation entry with ulcer formation is listed as “significantly decreased ulcer formation”.

As to `CN/C(=N/CCSCc1nc[nH]c1C)NC#N` [cimetidine], the ED50 with acid output (Canis lupus familiaris, po, read-out: oral ED50) was ~3.3 µmol/kg. In addition, the “basal and stimulated gastric acid secretion” value with gastric acid secretion was “antagonize both basal and stimulated gastric acid secretion”. Also, the ulcer formation result in the series on ulcer formation is recorded as “significantly decreased ulcer formation”.

In the case of `CC(C)CC(=O)N[C@H](C(=O)N[C@H](C(=O)N[C@@H](CC(C)C)[C@@H](O)CC(=O)N[C@@H](C)C(=O)N[C@@H](CC(C)C)[C@@H](O)CC(=O)O)C(C)C)C(C)C` [pepstatin] (Isovaleryl-VV[Sta]A[Sta]-OH), the “benefit in patients with duodenal ulcer” value with pepsin [3] (duodenal ulcer) is “ineffective”. For the same molecule, the LD50 result in series [4] is “exceeded 3000 mg/kg”. Moreover, in the series on pepsin [5], the “effect on the gastric acidity” value is recorded as “no effect” and the gastric peptic activity result is “inhibits gastric peptic activity”. Moreover, in the series with pepsin [6], the “duration of pepsin suppression” value is reported as “about 1 hours”. The “formation of stomach ulcers” value with stomach ulcers is “prevent the formation of stomach ulcers”. Further, in the series on gastric ulcer, the “healing or symptomatology of gastric ulcer” value is given as “not able to detect any influence”. In addition, the side effects entry in series [7] was “no side effects were observed”. Further, in the series on pepsin [8], the pepsin activity entry is “completely inhibited” and the ulcer formation entry is recorded as “antagonized ulcer formation”. Besides, the “healing or symptomatology of duodenal ulcer” value with duodenal ulcer (versus placebo) was “no significant difference between pepstatin and placebo”. Moreover, the “duration of inhibition of peptic activity of gastric juice” value in the series on duodenal ulcer is 18 hours a day. Besides, in series [9] (animal studies, oral, within 72 hours), the “excreted in the feces” value was “more than 90%”. Also, in series [9], the “absorption upon oral administration” value is reported as “essentially unabsorbed”. Further, the “absorption upon oral administration” value in [9] (listed as Pepstatin) was “only poorly absorbed”. Besides, in the series with pepsin [10], the occurrence of ulcers entry is on record as “prevented the occurrence of ulcers” and the “pepsin activity in the gastric juice” value is given as “inhibited pepsin activity”.

Consider sucralfate, for which the “benefit in patients with gastric ulcer” value in the series on pepsin [3] (gastric ulcer) is “none”.

The record behind these values is EP0099121A2, “Pharmaceutical compositions” (Bristol-Myers Company, priority 1982, dated 1984).
